{"source": "ChEMBL document CHEMBL1158138", "about": "“Cucurbitane triterpenes from the fruiting bodies and cultivated mycelia of Leucopaxillus gentianeus” (J Nat Prod, 2006)", "note": "Calls of active or inactive are those of the source. The rule behind the calls is not given here."}
{"test_system": "NCI-H460", "experiment": "Antiproliferative activity against human NCI-H460 cells after 72 hrs", "format": "functional, cell-based", "details": "NCI-H460, 72 h", "units": {"IC50": "µg/mL"}}
{"smiles": "CC(=O)OC(C)(C)/C=C/C(=O)[C@](C)(O)[C@H]1[C@H](O)C[C@@]2(C)[C@@H]3CC=C4[C@H](C[C@H](O)C(=O)C4(C)C)[C@]3(C)C(=O)C[C@]12C", "note": "[CUCURBITACIN B]", "IC50": 0.011}
{"smiles": "CC(=O)O[C@H](C[C@@H](OC(C)=O)C(C)(C)O)[C@@H](C)[C@H]1[C@H](O)C[C@@]2(C)[C@@H]3CC=C4[C@@H](CCC(=O)C4(C)C)[C@]3(C)C(=O)C[C@]12C", "note": "[18-DEOXYLEUCOPAXILLONE A]", "IC50": 10.6}
{"smiles": "CC[C@@]1(O)C(=O)OCc2c1cc1n(c2=O)Cc2cc3c(CN(C)C)c(O)ccc3nc2-1", "note": "[TOPOTECAN]", "IC50": 0.008}
{"smiles": "CC(=O)O[C@H](C[C@@H](OC(C)=O)C(C)(C)O)[C@@H](C)[C@H]1CC[C@@]2(C)[C@@H]3CC=C4[C@@H](CCC(=O)C4(C)C)[C@]3(C)[C@]3(O)C[C@]12CO3", "note": "[LEUCOPAXILLONE B]", "IC50": 0.3}
{"smiles": "CC(=O)OC(C)(C)/C=C/C(=O)[C@@](C)(O)[C@H]1CC[C@@]2(C)[C@@H]3CC=C4[C@@H](C[C@H](O)C(=O)C4(C)C)[C@]3(C)C(=O)C[C@]12C", "note": "[16-DEOXYCUCURBITACIN B]", "IC50": 0.06}
{"smiles": "CC(C)(O)/C=C/C(=O)[C@](C)(O)[C@H]1[C@H](O)C[C@@]2(C)[C@@H]3CC=C4[C@@H](C[C@H](O)C(=O)C4(C)C)[C@]3(C)C(=O)C[C@]12C", "note": "[CUCURBITACIN D]", "IC50": 0.12}
{"smiles": "CC(=O)O[C@H](C[C@@H](OC(C)=O)C(C)(C)O)[C@@H](C)[C@H]1CC[C@@]2(C)[C@@H]3CC=C4[C@@H](CCC(=O)C4(C)C)[C@]3(C)CC[C@]12CO", "note": "[LEUCOPAXILLONE A]", "IC50": 3.5}
{"target": "T1, DNA topoisomerase 1 (Homo sapiens) (UniProt P11387)", "T1 sequence (whole entry)": "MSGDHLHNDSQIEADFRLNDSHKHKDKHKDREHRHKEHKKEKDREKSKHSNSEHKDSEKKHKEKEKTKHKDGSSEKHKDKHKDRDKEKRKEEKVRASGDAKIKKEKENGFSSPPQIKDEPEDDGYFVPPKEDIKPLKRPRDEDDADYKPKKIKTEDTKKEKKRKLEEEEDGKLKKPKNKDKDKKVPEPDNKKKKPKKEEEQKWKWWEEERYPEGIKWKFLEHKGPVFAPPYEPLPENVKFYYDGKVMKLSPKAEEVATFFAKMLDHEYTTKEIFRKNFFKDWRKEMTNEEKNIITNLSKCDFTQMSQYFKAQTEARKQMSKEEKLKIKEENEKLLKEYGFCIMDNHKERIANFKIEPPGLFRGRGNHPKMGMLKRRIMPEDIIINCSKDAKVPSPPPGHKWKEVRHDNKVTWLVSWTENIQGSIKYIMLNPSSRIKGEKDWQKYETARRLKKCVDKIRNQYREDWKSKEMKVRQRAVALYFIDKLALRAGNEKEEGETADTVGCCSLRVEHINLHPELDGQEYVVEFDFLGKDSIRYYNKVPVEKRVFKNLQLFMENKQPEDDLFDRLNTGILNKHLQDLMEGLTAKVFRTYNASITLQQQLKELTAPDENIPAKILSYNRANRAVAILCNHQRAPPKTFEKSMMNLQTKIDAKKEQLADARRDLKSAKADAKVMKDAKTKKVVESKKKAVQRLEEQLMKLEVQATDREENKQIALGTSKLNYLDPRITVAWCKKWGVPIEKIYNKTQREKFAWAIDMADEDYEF", "experiment": "Inhibition of topoisomerase 1-mediated SV40 DNA cleavage at 1 to 50 uM by gel electrophoresis", "details": "not given"}
{"smiles": "CC(=O)OC(C)(C)/C=C/C(=O)[C@](C)(O)[C@H]1[C@H](O)C[C@@]2(C)[C@@H]3CC=C4[C@H](C[C@H](O)C(=O)C4(C)C)[C@]3(C)C(=O)C[C@]12C", "note": "[CUCURBITACIN B]", "Activity": "Active"}
{"smiles": "CCc1c2c(nc3ccc(O)cc13)-c1cc3c(c(=O)n1C2)COC(=O)[C@]3(O)CC", "Activity": "Active"}
